The values that follow come from patent publication US9499550B2 (BRISTOL-MYERS SQUIBB COMPANY, priority 2012, dated 2016).

Usually pEC50 stands for the negative decadic logarithm of the EC50, by convention in mol/L.

pEC50: −log10 of the molar value. Where two headings read alike, the source gives them in different places. Some results are limits rather than exact numbers.

Experiment [1] concerns HCV genotype 1b (Con1) replicon in HUH-7 cells. Kind of experiment: HCV replicon luciferase reporter assay, genotype 1b. The class given is cell-based. Conditions: Hepatitis C virus, Huh-7, 72 h, HCV genotype 1b replicon luciferase, 3 days incubation, read-out: LE_1b (EC50, range). The method in brief:
(§1)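 Replicon inhibition for both genotypes was measured as Renilla luciferase signal (EnduRen, 7.5 μM final, 2 h) after 3-day, 37° C exposure of replicon-bearing HUH-7 cells in 4% FCS DMEM, 0.5% DMSO. The 1b construct carries S1179I; the 1a H77 construct carries P1496L and S2204I. Twenty-point, 3-fold dilutions were fitted four-parametrically for EC50, and CC50 was taken from multiplexed Cell Titer-Blue.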
For orientation: Replicon systems follow genome replication, usually without infectious particles.

The subject of experiment [2] is HCV genotype 1a (H77 strain) replicon in HUH-7 cells. Kind of experiment: HCV replicon luciferase reporter assay, genotype 1a. The following applies: Hepatitis C virus, Huh-7, 72 h, HCV genotype 1a replicon luciferase, 3 days incubation, read-out: LE_1a (EC50, range). The experiment is classed as cell-based. The method in brief:
as §1

`CC[C@@H]1C[C@H](C)CC/C=C\[C@@H]2C[C@@]2(C(=O)NS(=O)(=O)C2(C)CC2)NC(=O)[C@@H]2C[C@@H](Oc3cnc4ccc(OC)cc4c3)CN2C(=O)[C@H]1NC(=O)OC(C)(C)C` [Compound 4201, tert-butyl (2R,6S,7R,9R,13aS,14aR,16aS,Z)-7-ethyl-2-(6-methoxyquinolin-3-yloxy)-9-methyl-14a-(1-methylcyclopropylsulfonylcarbamoyl)-5,16-dioxo-1,2,3,5,6,7,8,9,10,11,13a,14,14a,15,16,16a-hexadecahydrocyclopropa[e]pyrrolo[1,2-a][1,4]diazacyclopentadecin-6-ylcarbamate]: the pEC50 in experiment [1] and in experiment [2] was over 8.26 each time.
As for `CC[C@@H]1C[C@H](C)CC/C=C\[C@@H]2C[C@@]2(C(=O)NS(=O)(=O)C2(CF)CC2)NC(=O)[C@@H]2C[C@@H](Oc3nccc4cc(OC)ccc34)CN2C(=O)[C@H]1NC(=O)OC(C)(C)C` [Compound 4204, tert-butyl (2R,6S,7R,9R,13aS,14aR,16aS,Z)-7-ethyl-14a-(1-(fluoromethyl)cyclopropylsulfonylcarbamoyl)-2-(6-methoxyisoquinolin-1-yloxy)-9-methyl-5,16-dioxo-1,2,3,5,6,7,8,9,10,11,13a,14,14a,15,16,16a-hexadecahydrocyclopropa[e]pyrrolo[1,2-a][1,4]diazacyclopentadecin-6-ylcarbamate], the pEC50 in experiment [1] and in experiment [2] was over 8.26 throughout.
As to `CC[C@@H]1C[C@H](C)CC/C=C\[C@@H]2C[C@@]2(C(=O)NS(=O)(=O)C2(CF)CC2)NC(=O)[C@@H]2C[C@@H](Oc3nccc4cc(OC)ccc34)CN2C(=O)[C@H]1NC(=O)OC(C)(C)C(F)(F)F` [Compound 4205], the pEC50 in experiment [1] (GETYPE1B) and in experiment [2] (GETYPE1A) was over 8.26 each time.
For `CC[C@@H]1C[C@H](C)CC/C=C\[C@@H]2C[C@@]2(C(=O)NS(=O)(=O)C2(C)CC2)NC(=O)[C@@H]2C[C@@H](Oc3ncc(N4CCOCC4)c4cc(OC)ccc34)CN2C(=O)[C@H]1NC(=O)OC(C)(C)C(F)(F)F` [Compound 4206], the negative logarithm of the EC50 (pEC50) in experiment [1] (GETYPE1B) and in experiment [2] (GETYPE1A) was over 8.26 throughout.
As for `CC[C@@H]1C[C@@H](C)CC/C=C\[C@@H]2C[C@@]2(C(=O)NS(=O)(=O)C2(C)CC2)NC(=O)[C@@H]2C[C@@H](Oc3ncc(N4CCOCC4)c4cc(OC)ccc34)CN2C(=O)[C@H]1NC(=O)OC(C)(C)C(F)(F)F` [Compound 4207], the pEC50 in experiment [1] (GETYPE1B) and in experiment [2] (GETYPE1A) was over 8.26 each time.
Regarding `CC[C@@H]1C[C@@H](C)CC/C=C\[C@@H]2C[C@@]2(C(=O)NS(=O)(=O)C2(C)CC2)NC(=O)[C@@H]2C[C@@H](Oc3ncc(OC)c4cc(OC)c(F)cc34)CN2C(=O)[C@H]1NC(=O)OC(C)(C)C(F)(F)F` [Compound 4208], the pEC50 in experiment [1] (GETYPE1B) is over 8.26; in experiment [2] (GETYPE1A) it was 6.99 to 8.32.
As to `CC[C@@H]1C[C@H](C)CC/C=C\[C@@H]2C[C@@]2(C(=O)NS(=O)(=O)C2(C)CC2)NC(=O)[C@@H]2C[C@@H](Oc3cnc4ccc(OC)cc4n3)CN2C(=O)[C@H]1NC(=O)OC(C)(C)C(F)(F)F` [Compound 4219], the negative logarithm of the EC50 (pEC50) in experiment [1] (GETYPE1B) and in experiment [2] (GETYPE1A) was over 8.26 throughout.
Take `COc1ccc2nc(O[C@@H]3C[C@H]4C(=O)N[C@]5(C(=O)NS(=O)(=O)C6(CF)CC6)C[C@H]5/C=C\CC[C@@H](C)C[C@@H](C)[C@H](NC(=O)OC(C)(C)C)C(=O)N4C3)c(C)nc2c1` [Compound 4221, tert-butyl (2R,6S,7R,9R,13aS,14aR,16aS,Z)-14a-(1-(fluoromethyl)cyclopropylsulfonylcarbamoyl)-2-(6-methoxy-3-methylquinoxalin-2-yloxy)-7,9-dimethyl-5,16-dioxo-1,2,3,5,6,7,8,9,10,11,13a,14,14a,15,16,16a-hexadecahydrocyclopropa[e]pyrrolo[1,2-a][1,4]diazacyclopentadecin-6-ylcarbamate]: the pEC50 in experiment [1] and in experiment [2] was over 8.26 each time.
Consider `COc1ccc2nc(C)c(O[C@@H]3C[C@H]4C(=O)N[C@]5(C(=O)NS(=O)(=O)C6(CF)CC6)C[C@H]5/C=C\CC[C@@H](C)C[C@@H](C)[C@H](NC(=O)OC(C)(C)C)C(=O)N4C3)nc2c1` [Compound 4222, tert-butyl (2R,6S,7R,9R,13aS,14aR,16aS,Z)-14a-(1-(fluoromethyl)cyclopropylsulfonylcarbamoyl)-2-(7-methoxy-3-methylquinoxalin-2-yloxy)-7,9-dimethyl-5,16-dioxo-1,2,3,5,6,7,8,9,10,11,13a,14,14a,15,16,16a-hexadecahydrocyclopropa[e]pyrrolo[1,2-a][1,4]diazacyclopentadecin-6-ylcarbamate], for which the pEC50 in experiment [1] and in experiment [2] was over 8.26 throughout.
For the compound `CC[C@@H]1C[C@H](C)CC/C=C\[C@@H]2C[C@@]2(C(=O)NS(=O)(=O)C2(C)CC2)NC(=O)[C@@H]2C[C@@H](Oc3ncc(OC4CC4)c4ccccc34)CN2C(=O)[C@H]1NC(=O)OC(C)(C)C(F)(F)F` [Compound 4223], the pEC50 in experiment [1] (GETYPE1B) and in experiment [2] (GETYPE1A) was over 8.26 in each case.
As to `COc1cnc(O[C@@H]2C[C@H]3C(=O)N[C@]4(C(=O)NS(=O)(=O)C5(F)CC5)C[C@H]4/C=C\CC[C@@H](C)C[C@@H](C)[C@H](NC(=O)OC(C)(C)C)C(=O)N3C2)c2ccccc12` [Compound 4224], the pEC50 in experiment [1] and in experiment [2] was over 8.26 in each case.
In the case of `C[C@@H]1CC/C=C\[C@@H]2C[C@@]2(C(=O)NS(=O)(=O)C2(F)CC2)NC(=O)[C@@H]2C[C@@H](Oc3ncc(OC4CC4)c4ccccc34)CN2C(=O)[C@@H](NC(=O)OC(C)(C)C)[C@H](C)C1` [Compound 4225, tert-butyl (2R,6S,7R,9R,13aS,14aR,16aS,Z)-2-(4-cyclopropoxyisoquinolin-1-yloxy)-14a-(1-fluorocyclopropylsulfonylcarbamoyl)-7,9-dimethyl-5,16-dioxo-1,2,3,5,6,7,8,9,10,11,13a,14,14a,15,16,16a-hexadecahydrocyclopropa[e]pyrrolo[1,2-a][1,4]diazacyclopentadecin-6-ylcarbamate], the pEC50 in experiment [1] and in experiment [2] was over 8.26 throughout.
In the case of `CCOc1cnc(O[C@@H]2C[C@H]3C(=O)N[C@]4(C(=O)NS(=O)(=O)C5(C)CC5)C[C@H]4/C=C\CC[C@@H](C)C[C@@H](CC)[C@H](NC(=O)OC(C)(C)C(F)(F)F)C(=O)N3C2)c2ccc(OC)cc12` [Compound 4227], the negative logarithm of the EC50 (pEC50) in experiment [1] (GETYPE1B) and in experiment [2] (GETYPE1A) was over 8.26 throughout.
In the case of `COc1ccc2c(O[C@@H]3C[C@H]4C(=O)N[C@]5(C(=O)NS(=O)(=O)C6(C)CC6)C[C@H]5/C=C\CC[C@@H](C)C[C@@H](C)[C@H](N)C(=O)N4C3)ncc(OC)c2c1` [Compound 4228, (2R,6S,7R,9R,13aS,14aR,16aS,Z)-6-amino-2-(4,6-dimethoxyisoquinolin-1-yloxy)-7,9-dimethyl-N-(1-methylcyclopropylsulfonyl)-5,16-dioxo-1,2,3,5,6,7,8,9,10,11,13a,14,14a,15,16,16a-hexadecahydrocyclopropa[e]pyrrolo[1,2-a][1,4]diazacyclopentadecine-14a-carboxamide], the pEC50 in experiment [1] and in experiment [2] was over 8.26 throughout.
Take `COc1ccc2c(O[C@@H]3C[C@H]4C(=O)N[C@]5(C(=O)NS(=O)(=O)C6CC6)C[C@H]5/C=C\CC[C@H](C)C[C@@H](C)[C@H](NC(=O)OC(C)(C)C(F)(F)F)C(=O)N4C3)ncc(OC)c2c1` [Compound 4229]: the pEC50 in experiment [1] (GETYPE1B) and in experiment [2] (GETYPE1A) was over 8.26 in each case.
Regarding `CCOc1cnc(O[C@@H]2C[C@H]3C(=O)N[C@]4(C(=O)NS(=O)(=O)C5(C)CC5)C[C@H]4/C=C\CC[C@H](C)C[C@@H](C)[C@H](NC(=O)OC(C)(C)C(F)(F)F)C(=O)N3C2)c2ccc(OC)cc12` [Compound 4230], the pEC50 in experiment [1] (GETYPE1B) and in experiment [2] (GETYPE1A) was over 8.26 throughout.
In the case of `C=COc1cnc(O[C@@H]2C[C@H]3C(=O)N[C@]4(C(=O)NS(=O)(=O)C5(C)CC5)C[C@H]4/C=C\CC[C@@H](C)C[C@@H](C)[C@H](NC(=O)OC(C)(C)C(F)(F)F)C(=O)N3C2)c2ccc(OC)cc12` [Compound 4231], the negative logarithm of the EC50 (pEC50) in experiment [1] (GETYPE1B) and in experiment [2] (GETYPE1A) was over 8.26 throughout.
As for `COc1cc2ccnc(O[C@@H]3C[C@H]4C(=O)N[C@]5(C(=O)NS(=O)(=O)C6(CF)CC6)C[C@H]5/C=C\CC[C@@H](C)C[C@@H](C)[C@H](N)C(=O)N4C3)c2cc1F` [Compound 4235, (2R,6S,7R,9R,13aS,14aR,16aS,Z)-6-amino-2-(7-fluoro-6-methoxyisoquinolin-1-yloxy)-N-(1-(fluoromethyl)cyclopropylsulfonyl)-7,9-dimethyl-5,16-dioxo-1,2,3,5,6,7,8,9,10,11,13a,14,14a,15,16,16a-hexadecahydrocyclopropa[e]pyrrolo[1,2-a][1,4]diazacyclopentadecine-14a-carboxamide], the pEC50 in experiment [1] and in experiment [2] was 6.99 to 8.32 each time.
With `CC[C@@H]1C[C@H](C)CC/C=C\[C@@H]2C[C@@]2(C(=O)NS(=O)(=O)C2(C)CC2)NC(=O)[C@@H]2C[C@@H](Oc3ncc(OC)c4cc(OC)c(F)cc34)CN2C(=O)[C@H]1NC(=O)OC(C)(C)C(F)(F)F` [Compound 4236], the negative logarithm of the EC50 (pEC50) in experiment [1] (GETYPE1B) and in experiment [2] (GETYPE1A) was over 8.26 each time.
For `CC[C@@H]1C[C@H](C)CC/C=C\[C@@H]2C[C@@]2(C(=O)NS(=O)(=O)C2(C)CC2)NC(=O)[C@@H]2C[C@@H](Oc3ncc(N4CCOCC4)c4cc(OC)c(F)cc34)CN2C(=O)[C@H]1NC(=O)OC(C)(C)C(F)(F)F` [Compound 4237], the pEC50 in experiment [1] (GETYPE1B) and in experiment [2] (GETYPE1A) was over 8.26 each time.
Regarding `COc1cc2c(OC)cnc(O[C@@H]3C[C@H]4C(=O)N[C@]5(C(=O)NS(=O)(=O)C6(CO)CC6)C[C@H]5/C=C\CC[C@@H](C)C[C@@H](C)[C@H](NC(=O)OC(C)(C)C(F)(F)F)C(=O)N4C3)c2cc1F` [Compound 4238], the negative logarithm of the EC50 (pEC50) in experiment [1] (GETYPE1B) and in experiment [2] (GETYPE1A) was 6.99 to 8.32 throughout.
